From PubChem BioAssay AID248 (DTP/NCI, 2004) come the findings set out here.

“And” between values parts separate entries of the source, which are not always exact repeats. Equal entries are not always repeated. Toxic doses and inconclusive results are not listed.

For this assay, the system named is L1210 leukemia ip in BDF1 mice, survival T/C. Kind of assay: NCI In Vivo Anticancer Drug Screen. Data for tumor model L1210 Leukemia (intraperitoneal) in B6D2F1 (BDF1) mice. The conditions noted are these: endpoint: mean survival time, higher = longer survival. The method in brief:
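Mice bearing the transplanted tumor received compound or vehicle. Survival of the treated group was divided by that of the vehicle-treated control group to give the ratio.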

[1] abbreviates: dose: 100.0 mg/kg/injection, schedule: Q04DX003 (ip), vehicle: Klucel (hydroxypropylcellulose) (HPC).
The mark [2] stands for this setting: dose: 200.0 mg/kg/injection, schedule: Q04DX003 (ip), vehicle: Klucel (hydroxypropylcellulose) (HPC).
The mark [3] stands for this setting: dose: 400.0 mg/kg/injection, schedule: Q04DX003 (ip), vehicle: Klucel (hydroxypropylcellulose) (HPC).
[4] abbreviates: dose: 100.0 mg/kg/injection, schedule: Q01DX001 (ip), vehicle: saline.
[5] abbreviates: dose: 100.0 mg/kg/injection, schedule: Q04DX003 (ip), vehicle: saline with Tween-80.
The mark [6] stands for this setting: dose: 200.0 mg/kg/injection, schedule: Q04DX003 (ip), vehicle: saline with Tween-80.
[7] abbreviates: dose: 400.0 mg/kg/injection, schedule: Q04DX003 (ip), vehicle: saline with Tween-80.
Where [8] appears, read: dose: 200.0 mg/kg/injection, schedule: Q01DX001 (ip), vehicle: saline.
Setting [9] is: dose: 400.0 mg/kg/injection, schedule: Q01DX001 (ip), vehicle: saline.
The mark [10] stands for this setting: dose: 100.0 mg/kg/injection, schedule: Q01DX009 (ip), vehicle: saline.
Setting [11] is: dose: 100.0 mg/kg/injection, schedule: Q04DX003 (ip), vehicle: saline.
Setting [12] is: dose: 200.0 mg/kg/injection, schedule: Q04DX003 (ip), vehicle: saline.

Turning to `Cc1nc(N)[nH]c(=O)c1CCCNC(=O)Cc1ccccc1`, the T/C runs as follows: (dose: 12.5 mg/kg/injection, schedule: Q01DX001 (ip), vehicle: Klucel (hydroxypropylcellulose) (HPC)) 105 % of control; (dose: 25.0 mg/kg/injection, schedule: Q01DX001 (ip), vehicle: Klucel (hydroxypropylcellulose) (HPC)) 97 % of control; (dose: 50.0 mg/kg/injection, schedule: Q01DX001 (ip), vehicle: Klucel (hydroxypropylcellulose) (HPC)) 100 % of control.

`ClC(Cl)(Cl)C(Nc1ccccc1)Nc1ccccc1`: the T/C runs as follows: (dose: 100.0 mg/kg/injection, schedule: Q01DX009 (ip), vehicle: Klucel (hydroxypropylcellulose) (HPC)) 87 % of control; under setting [1], 94 % of control; (dose: 200.0 mg/kg/injection, schedule: Q01DX009 (ip), vehicle: Klucel (hydroxypropylcellulose) (HPC)) 96 % of control; under setting [2], 90 % of control; (dose: 400.0 mg/kg/injection, schedule: Q01DX009 (ip), vehicle: Klucel (hydroxypropylcellulose) (HPC)) 91 % of control; under setting [3], 92 % of control.

Consider `CCOC(=O)c1cnc(NN)[nH]c1=O`, for which the T/C reads like this: under setting [1], 97 % of control; under setting [2], 97 % of control.

For `CCN(CC)CCSSCCN(CC)CC.[Cl][Mn][Cl]`, the T/C under setting [4] is 103 % of control.

`CN(C)c1ccc(C=C(c2ccc(N)cc2)c2ccc(N)cc2)cc1`: the T/C is 93 % of control under setting [5], 96 % of control under setting [6] and 96 % of control under setting [7].

Consider `COC(=O)N/N=C/c1ccc(Cl)cc1Cl`, for which the T/C is 94 % of control (dose: 6.25 mg/kg/injection, schedule: Q01DX009 (ip), vehicle: Klucel (hydroxypropylcellulose) (HPC)); 101 % of control (dose: 12.5 mg/kg/injection, schedule: Q01DX009 (ip), vehicle: Klucel (hydroxypropylcellulose) (HPC)); 94 % of control and 92 % of control (dose: 25.0 mg/kg/injection, schedule: Q01DX009 (ip), vehicle: Klucel (hydroxypropylcellulose) (HPC)).

`CCCCCCCCCCCCCCCC(=O)OC(C)CCC1CCCO1` (centres undefined): the T/C by setting is: under setting [4], 90 % of control; under setting [8], 95 % of control; under setting [9], 90 % of control.

Turning to `CC(=O)CC(=O)C(F)(F)F.[O]=[U]=[O]`, the T/C (dose: 0.37 mg/kg/injection, schedule: Q01DX009 (ip), vehicle: gum acacia) was 99 % of control; the T/C (dose: 0.75 mg/kg/injection, schedule: Q01DX009 (ip), vehicle: gum acacia) was 101 % of control; the T/C (dose: 1.5 mg/kg/injection, schedule: Q01DX009 (ip), vehicle: gum acacia) is 101 % of control; the T/C (dose: 6.25 mg/kg/injection, schedule: Q01DX005 (ip), vehicle: gum acacia) was 99 % of control; the T/C (dose: 6.25 mg/kg/injection, schedule: Q01DX009 (ip), vehicle: gum acacia) is 98 % of control; the T/C (dose: 12.5 mg/kg/injection, schedule: Q01DX005 (ip), vehicle: gum acacia) is 86 % of control. For the same compound, the T/C is 104 % of control (dose: 12.5 mg/kg/injection, schedule: Q04DX002 (ip), vehicle: gum acacia) and 87 % of control (dose: 25.0 mg/kg/injection, schedule: Q04DX002 (ip), vehicle: gum acacia).

Regarding `CCC(CC)C(O)(C(=O)O)C(CC)CC`, the T/C is 95 % of control under setting [4], 89 % of control under setting [8] and 97 % of control under setting [9].

`CC(=O)O[C@H]1CC[C@@]2(C)C(=CC[C@H]3[C@@H]4CC[C@H](O)[C@@]4(C)CC[C@@H]32)C1`: the T/C runs as follows: under setting [1], 103 % of control; under setting [2], 103 % of control; under setting [3], 96 % of control.

Take `CC12C=CC(CC1)C2(C)C` (centres undefined): the T/C under setting [10] is 95 % of control and the T/C (dose: 200.0 mg/kg/injection, schedule: Q01DX009 (ip), vehicle: saline) is 92 % of control.

As for `N#C/C(=C\c1ccncc1)c1ccccc1Cl`, the T/C (dose: 100.0 mg/kg/injection, schedule: Q01DX001 (ip), vehicle: other) is 91 % of control; the T/C (dose: 200.0 mg/kg/injection, schedule: Q01DX001 (ip), vehicle: other) was 89 % of control; the T/C (dose: 400.0 mg/kg/injection, schedule: Q01DX001 (ip), vehicle: other) is 96 % of control.

`O=C(O)c1cccc(O)c1[N+](=O)[O-]`: the T/C is 97 % of control under setting [11]; 95 % of control under setting [12]; 97 % of control (dose: 400.0 mg/kg/injection, schedule: Q04DX003 (ip), vehicle: saline).

Consider `CC(C)(C)OC1C=CCCC1` (centres undefined), for which the T/C was 96 % of control under setting [5], 96 % of control under setting [6] and 96 % of control under setting [7].

For `Cn1cc(C(O)CN2CCCCC2)c2ccccc21` (centres undefined), the T/C is, setting by setting: (dose: 25.0 mg/kg/injection, schedule: Q04DX003 (ip), vehicle: saline with Tween-80) 104 % of control; (dose: 50.0 mg/kg/injection, schedule: Q04DX003 (ip), vehicle: saline with Tween-80) 97 % of control.

Regarding `COC(=O)C1C2CCc3cc(OC)ccc3C2CC(=O)C1(C)C(=O)OC` (centres undefined), the T/C was 98 % of control (dose: 100.0 mg/kg/injection, schedule: Q01DX009 (sc), vehicle: steriod suspending solution); 98 % of control (dose: 200.0 mg/kg/injection, schedule: Q01DX009 (sc), vehicle: steriod suspending solution); 107 % of control (dose: 400.0 mg/kg/injection, schedule: Q01DX009 (sc), vehicle: steriod suspending solution).

For the compound `CC(C)CNC(=O)Oc1cccc(NC(=O)N(C)C)c1`, the T/C by setting is: under setting [5], 92 % of control; under setting [6], 94 % of control; under setting [7], 94 % of control.

Consider `Sc1cccc2cccnc12.[Ni]`, for which the T/C was 111 % of control (dose: 50.0 mg/kg/injection, schedule: Q01DX001 (ip), vehicle: saline); 98 % of control under setting [4]; 98 % of control under setting [8]; 98 % of control under setting [9].

In the case of `CC1NC1(c1ccccc1)[n+]1ccccc1` (centres undefined), the T/C (dose: 50.0 mg/kg/injection, schedule: Q01DX009 (ip), vehicle: saline) was 97 % of control; the T/C under setting [10] is 95 % of control; the T/C under setting [11] is 105 % of control; the T/C under setting [12] is 105 % of control.

As for `COC(=O)CN(C(=O)c1ccc(OC(C)=O)cc1)c1ccccc1`, the T/C is 100 % of control under setting [1], 94 % of control under setting [2] and 96 % of control under setting [3].

In the case of `CCN(CC)CCN1C(=O)c2cccc3cccc(c23)C1=O`, the T/C (dose: 10.5 mg/kg/injection, schedule: Q03HX024 (ip), vehicle: saline) is 102 % of control; the T/C (dose: 15.7 mg/kg/injection, schedule: Q03HX024 (ip), vehicle: saline) is 98 % of control; the T/C (dose: 23.4 mg/kg/injection, schedule: Q03HX024 (ip), vehicle: saline) is 99 % of control; the T/C (dose: 34.8 mg/kg/injection, schedule: Q03HX024 (ip), vehicle: saline) was 111 % of control; the T/C (dose: 52.0 mg/kg/injection, schedule: Q03HX024 (ip), vehicle: saline) was 165 % of control; the T/C (dose: 96.0 mg/kg/injection, schedule: Q01DX009 (ip), vehicle: saline) is 111 % of control. Also, the T/C is, setting by setting: (dose: 96.0 mg/kg/injection, schedule: Q03HX024 (ip), vehicle: saline) 96 % of control; (dose: 105.0 mg/kg/injection, schedule: Q01DX001 (ip), vehicle: saline) 103 % of control; (dose: 105.0 mg/kg/injection, schedule: Q04DX003 (ip), vehicle: saline) 100 % of control; (dose: 157.0 mg/kg/injection, schedule: Q01DX001 (ip), vehicle: saline) 100 % of control; (dose: 157.0 mg/kg/injection, schedule: Q04DX003 (ip), vehicle: saline) 110 % of control.

For the compound `CSCCOP(=O)(N(C)C)N(C)C`, the T/C (dose: 100.0 mg/kg/injection, schedule: Q04DX002 (ip), vehicle: Klucel (hydroxypropylcellulose) (HPC)) is 103 % of control; the T/C (dose: 200.0 mg/kg/injection, schedule: Q04DX002 (ip), vehicle: Klucel (hydroxypropylcellulose) (HPC)) is 103 % of control; the T/C (dose: 400.0 mg/kg/injection, schedule: Q04DX002 (ip), vehicle: Klucel (hydroxypropylcellulose) (HPC)) is 88 % of control.
